Consider 14 molecules from patent publication US5801182A, “Amine substituted compounds” (Cell Therapeutics, Inc., priority 1995, dated 1998).

One series concerns human stromal cells. Description: PDGF-induced proliferation in human stromal cells. To be noted: for concentration at which comparative compounds' activity is apparent: 50 ng/ml PDGF-BB, human stromal cells, FIG. 23. It counts as cell-based. How it is done: 3506 on PDGF-induced proliferation in human stromal cells. Procedurally, human stromal cells were starved in serum-free media for 24 hours and then stimulated with 50 ng/ml PDGF. Compound no. 3506 was added at various concentrations one hour prior to PDGF stimulation and pulsed for 24 hours. Cells were harvested and cell proliferation measured having background counts (i.e., starved cells) at about 10% of control levels.
Human stromal cells were starved in serum-free media for 24 hours and then stimulated with 50 ng/ml PDGF-BB. The drugs were added at various concentrations one hour prior to PDGF stimulation. Tritiated thymidine was added at the time of PDGF stimulation and pulsed for 24 hours. Cells were harvested and cell proliferation measured (FIG. 23). Background counts (i.e., starved cells) were about 10% of control levels.

In series [1] the test system is Mouse bone marrow cells (CFU-GM). In words: CFU-GM colony assay, effect on normal bone marrow cells. It counts as cell-based. To be noted: for effect on normal cells compared to known chemotherapeutic compounds in vitro: vs vinblastine, 5-fluorouracil, doxorubicin or cisplatinum; for toxicity for normal mouse marrow cells: 8 hours incubation, CFU-GM after 7 days, FIGS. 12-16. The source says: This example illustrates a method for examining an effect of the inventive compounds, showing potential as cancer therapies on normal cells. This assay has been used clinically to evaluate recovery of patients' marrow following chemotherapy or radiation. In this specific example, inventive compounds nos.
Mouse bone marrow cells are useful in this assay because they produce colonies, which can later be counted, in culture. The colonies are called colony forming unit-granulocyte macrophage (CFU-GM) and depend on a source of colony stimulating factor for growth.
Cells were cultured with inventive compounds nos. 3563, 3576, 3581, 3584 and 4500, to comparatively evaluate an effect on normal cells of inventive compounds identified as potential cancer therapies. Procedurally, cells were incubated for 8 hours with various concentrations of these compounds. A negative control without any compound was simultaneously prepared. After 8 hours, the incubated cells were washed thoroughly and a consistent number were subsequently plated to obtain CFU-GM. Colonies were permitted to grow for 7 days at 37° C., in 5% CO2. After 7 days of growth, colony growths were counted microscopically. Data obtained in this assay for inventive compounds nos. 3563, 3576, 3581, 3584 and 4500 are plotted in FIGS. 12, 13, 14, 15 and 16, respectively. The data in the figures are shown to compare the colonies counted for cells incubated with varying concentrations of the compounds tested against the negative control, without compound. At concentrations ranging from 5 to 30 μM, more colonies existed for cells incubated with the inventive potential cancer compound than with known, chemotherapeutic agents. Compound no.

For series [2], the system named is HIV long terminal repeat (LTR) promotor. In words: Inhibition of reporter gene (alkaline phosphatase) expression directed by HIV-LTR promotor in 293-EBNA cells. It counts as cell-based. To be noted: Human immunodeficiency virus 1; reporter gene directed by HIV-LTR promotor in 293-EBNA cells; FIGS. 17, 19, 21. An excerpt:
This example is an assay used to measure anti-viral activity of inventive compounds nos. […] This assay is predictive of anti-viral activity for retroviruses. Specifically,a plasmid construct, pHIV.AP, using the human immunodeficiency virus (HIV) long terminal repeat (LTR) promotor [derived from pU3R-III CAT (Sodroski et al. Science, Vol. 227, page 171, 1985) to direct the expression of secreted human placental alkaline phosphatase reporter gene and an expression vector for a 72 amino acids tat protein from HIV (Frankel et al., Cell, Vol. 55, pages 1189-1193, 1988) were transfected into a tumor cell line (e.g., 293-EBNA cells). The stably transfected cells were treated with various concentrations of the inventive compounds. The expression of the alkaline phosphatase (AP) reporter gene in the individual cultures was then measured by following the change in absorbance at A405 of cell conditioned media in the presence of a suitable substrate (e.g., ortho-nitrophenol phosphate). Berger et al., Gene, Vol. 66, pages 1-10, 1988.
A general note: In a reporter assay the amount or activity of a reporter protein is the signal.

The nature of series [3]: Viability of 293-EBNA cells (alamarBlue colorimetric assay). It counts as cell-based. The note with it: human, 293-ebna cells; alamarBlue; FIGS. 18, 20, 21; read-out: LD50, 293-EBNA cells. How it is done: (§1) The effect of respective inventive compounds on the viability of 293-EBNA cells was measured by a colorimetric assay that uses the alamarBlue® dye (purchased from Alamar Biosciences, Inc.) to report cell proliferation, viability and cytotoxicity. This dye is an oxidation-reduction (Redox) indicator that changes color in response to chemical reduction of growth medium resulting from cell growth. The general procedure involves adding alamarBlue® in an amount equal to 10% of the culture volume, returning the culture to incubator for four hours, and measuring the absorbance at 570 nm after subtraction of background absorbance at 600 nm.

The next series deals with thymocytes. Description: Thymocyte proliferation and activation, co-stimulated with Con A and IL-2. The note with it: Mus musculus, 2 h, compound added two hours prior, FIGS. 6-11. It counts as cell-based, Balb/C mice. How it is done: 3506, 3556, 3563, 3576, 3581, 3582 and 3584 on thymocyte proliferation and activation, co-stimulated with Concanavalin A (Con A) and interleukin-2 (IL-2), at various concentrations of the compounds (IC50). Con A and IL-2 together stimulate T cell proliferation and differentiation.
Thymuses, obtained from normal, female Balb/C mice, were dissociated and plated into 96-well plates at a density of 2×10^5 cells/well. Con A ([…]) and IL-2 (15 U/ml) were added to the wells. The cells were incubated for 4 days at 37° C. On day 4, the cells were pulsed with tritiated thymidine and incubated for an additional 4 hours. Incorporated tritiated thymidine of harvested cells was determined in a liquid scintillation counter. Results plotted as dose concentration versus proliferation for inventive compounds nos. 3506, 3556, 3563, 3576, 3581, 3582 and 3584 are shown in FIGS. 6 (3506), 7 (3556), 8 (3563), 9 (3576), 10 (3581 and 3582) and 11 (3584). Respective concentrations of inventive compound (shown in the figures) were added two hours prior to Con A and IL-2 activation. Background counts were less than 200 cpm.

A further series deals with 293-EBNA cells. In words: Viability of 293-EBNA cells (alamarBlue colorimetric assay). It counts as cell-based. The protocol:
as §1
A general note: Resazurin is reduced to fluorescent resorufin, in cell work by metabolically active cells.

Series [4] deals with Balb/3T3 cells. Description: PDGF-induced proliferation of Balb/3T3 cells (tritiated thymidine). It counts as cell-based. The note with it: Mus musculus, BALB/3T3, 24 h; PDGF-stimulated; FIGS. 2 and 4; read-out: concentrations inhibiting proliferation of Balb/3T3 cells stimulated by PDGF. How it is done: Disregulated PDGF-proliferative response has been linked to a variety of diseases, including, e.g., restenosis, atherosclerosis, fibrosis, and tumor cell angiogenesis. Balb/3T3 cells respond vigorously to PDGF stimulation, and are useful in vitro models for further study of PDGF-induced proliferation.
Balb/3T3 cells were plated in low serum-containing medium for 24 hours prior to stimulation with various concentrations of inventive compounds nos. 3556 and 4500. PDGF was added at varying concentrations along with tritiated thymidine. The cells were allowed to incubate for one day, following addition of PDGF and thymidine. Twenty-four hours later, the cells were harvested and counted by liquid scintillation counting. FIGS. 2 and 4 report data for inventive compounds nos. 3556 and 4500, respectively, obtained in this proliferation assay. The results shown in each respective figure illustrate that inventive compounds nos.

Series [5] concerns Balb/3T3 cells. In words: Viability (cytotoxicity) assay of Balb/3T3 cells with BCECF. It counts as cell-based. The note with it: at the concentrations at which the compounds inhibit proliferation; vs control value of 100%; FIGS. 3 and 5. How it is done: In conjunction with the Balb/3T3 proliferation assay, a related viability assay was conducted to assess the cytotoxicity of compounds which inhibit proliferation in this system. The assay protocol was identical to that performed above except that tritiated thymidine was not added after the 24 hour incubation with PDGF. In this cytotoxicity assay, after incubating the cells, a 10 μM solution of BCECF was added and the cells were incubated for 30 minutes at 37° C. Following this incubation, BCECF was replaced with PBS and the plate read for fluorescence in a Millipore cytofluorometer. Data obtained was plotted as a percent of control versus concentration of inventive compound tested. FIGS. 3 and 5 represent the results of this viability assay, for compounds nos. 3556 and 4500, respectively.

On to `CC(=O)CCCCCCn1c(=O)c2c(ncn2C)n(C)c1=O` [A, 1-(7-oxooctyl)-3,7-dimethylxanthine], for which the “concentration at which comparative compounds' activity is apparent” value in the series with human stromal cells is given as “millimolar concentrations”.

As to `CC(CCCCn1c(=O)c2c(ncn2C)n(C)c1=O)N(C)C` (centres unmarked) [B, 1-(5-dimethylaminohexyl)-3,7-dimethylxanthine], the “concentration at which comparative compounds' activity is apparent” value in the series on human stromal cells is listed as “millimolar concentrations”.

As for `CCCCCCCCCCCCN(C)CCCCCCCCCCCn1c(=O)c2c(ncn2C)n(C)c1=O` [compound 3576], in series [1], the “effect on normal cells compared to known chemotherapeutic compounds in vitro” value is “less deleterious to normal cells”. In addition, the IC50 (as a rule, the point on the concentration scale where inhibition reaches its midpoint) was < 10 µM in series [2] and 0.26 µM in the series with thymocytes. In series [3], the CC50 is < 15 µM.

Consider `CCCCCCCCCCNCCCCCCCCCCCn1c(=O)c2c(ncn2C)n(C)c1=O` [compound 3581], for which the “effect on normal cells compared to known chemotherapeutic compounds in vitro” value in series [1] is “less deleterious to normal cells”. Moreover, the IC50 in series [2] was < 5 µM. Also, the CC50 in series [3] was < 10 µM.

On to `CCCCCCCCCCCCCCNCCCCCCCCCCCn1c(=O)c2c(ncn2C)n(C)c1=O` [compound 3582], for which the IC50 in series [2] was < 5 µM. Further, the CC50 in series [3] is < 5 µM.

As to `CCCCCCCCCCCCCCCCNCCCCCCCCCCCn1c(=O)c2c(ncn2C)n(C)c1=O` [compound 3584], in series [1], the “effect on normal cells compared to known chemotherapeutic compounds in vitro” value is “less deleterious to normal cells”. For the same molecule, the IC50 in series [2] was < 10 µM. Further, the CC50 in series [3] was < 15 µM.

With `CCCCCCCCCCCCCNCCCCCCCCCCCn1c(=O)c2c(ncn2C)n(C)c1=O` [compound 4507], the IC50 in series [2] is < 4 µM. In addition, the CC50 in series [3] was < 7 µM.

Turning to `CCCCCCCCCCCNCCCCCCn1c(=O)c2c(ncn2C)n(C)c1=O` [compound no. 3506], in the series with human stromal cells (50 ng/ml PDGF, compound added one hour prior, FIG. 1), the “PDGF-induced proliferation in human stromal cells” value is given as “inhibition of PDGF-induced proliferation”. Also, in the series with thymocytes, the midpoint of inhibition, the IC50, lay at 2.3 µM.

Regarding `CCCCCCCCCCCCNCCCCCCCCCCCn1c(=O)c2c(ncn2C)n(C)c1=O` [compound no. 3563], in series [1], the “toxicity for normal mouse marrow cells” value is “most cytotoxic to proliferative potential of the mouse marrow cells” and the “effect on normal cells compared to known chemotherapeutic compounds in vitro” value is on record as “less deleterious to normal cells”. Besides, the IC50 in series [2] is < 4 µM. Also, in series [3], the CC50 is < 7 µM.

As for `CCCCCCNCCCCCCCCCCCn1c(=O)c2c(ncn2C)n(C)c1=O` [compound no. 3580], in series [2], the IC50 was < 10 µM. The “cytotoxicity to 293-EBNA cells (in words)” value (shortened to “cytotoxicity … (in words)”) in the series on 293-EBNA cells was “minimal cytotoxicity”. The CC50 in series [3] is < 30 µM.

As to `CCCCCCN(CCCCCC)CCCCCCCCCCCn1c(=O)c2c(ncn2C)n(C)c1=O` [compound no. 3590], in series [2], the IC50 is < 20 µM. Moreover, in the series with 293-EBNA cells, the “cytotoxicity … (in words)” value is listed as “little cytotoxicity even at >32 μM”.

In the case of `COc1cc(CNCCCCCCCCCCCn2c(=O)c3c(ncn3C)n(C)c2=O)cc(OC)c1OC` [compound no. 3593], in series [2], the IC50 was < 25 µM. For the same molecule, in the series with 293-EBNA cells, the “cytotoxicity … (in words)” value is listed as “little cytotoxicity, even at >32 μM”.

In the case of `CCCCCCN(C)CCCCCCCCCCCn1c(=O)c2c(ncn2C)n(C)c1=O` [compound no. 4500], the minimal effective concentration with Balb/3T3 cells [4] is < 30 µM. For the same molecule, the “toxicity for normal mouse marrow cells” value in series [1] was “virtually no toxicity at elevated concentrations”. Besides, the IC50 in series [2] was < 10 µM. Besides, the “cytotoxicity to Balb/3T3 cells” value in the series on Balb/3T3 cells [5] is listed as “not cytotoxic to any cells”.

Turning to `CCCCCCCCCCCCCCCNCCCCCCCCCCCn1c(=O)c2c(ncn2C)n(C)c1=O` [compound no. 4508], the IC50 in series [2] was < 10 µM. Besides, in series [3], the CC50 is < 10 µM.
